Measurements from patent US12661362B2, “Methods for the prevention and treatment of hearing loss” (Ting Therapeutics LLC, priority 2020, dated 2026).

Columns and labels:
FVB/NJ mice = assay: Noise-induced hearing loss in FVB/NJ mice (ABR, DPOAE, wave-I, CtBP2 ribbon count); type: in vivo, mouse
Text: Now referring to FIGS. 4A-4F Niclosamide attenuates Cisplatin-induced hearing loss in FVB/NJ mice. Mice: Procedures used with mice were approved by the Institutional Animal Care and Use Committee (IACUC) at the Creighton University. For functional assessments including Cisplatin and noise exposure experiments 5 to 7-week-old FVB/NJ mice obtained from Jackson Laboratory (Bar Harbor, ME, USA) were used, with a mix of males and females across experiments. For the Cisplatin and noise studies, FVB/NJ mice were treated with 10 mg/kg Niclosamide, through intraperitoneal (IP) injection. Niclosamide, was dissolved in 1% DMSO in normal saline (0.9% NaCl solution) and vortexed multiple times before injections. Treatment started 24 hours before the Cisplatin or noise-exposure and continued once daily for 3 more days. Cisplatin was injected IP at 30 mg/kg divided into 2 doses per day. Animals were given 1 mL warm sterile normal saline subcutaneously twice a day before and for 7 days after Cisplatin treatment to prevent dehydration.
Now referring to FIG. 4A, ABR tests were performed 2-3 days before Cisplatin exposure, and 5 days post-Cisplatin exposure. The experimental groups included: Cisplatin and 1% DMSO, Cisplatin and Niclosamide, Niclosamide, only, and age-matched controls receiving normal saline. For the noise experiment, auditory tests were performed 2-3 days prior to noise exposure (paradigm described below), at post-exposure day-1 to monitor temporary threshold shift (TTS) and at post-exposure day-14 to monitor permanent threshold shift (PTS). Experimental groups included: noise-exposure and normal saline, noise-exposure and Niclosamide, Niclosamide-only, and age-matched controls. Following the final auditory function measurements, mice were euthanized, and cochleae were collected for morphological assessment. Based on the results of FVB/NJ ABR/DPOAE threshold variances and power analysis, ten FVB/NJ mice per group (5 of each sex) were used in this study.
Now referring to FIGS. 5B-5F, mice were injected with 10 mg/kg Niclosamide, per IP injection once per day for four consecutive days: one day before noise exposure (8-16 kHz at 105 dB SPL), the day of the noise exposure, and two days after noise exposure. Control animals received vehicle injections on the same schedule.
Now referring to FIG. 5B, Noise-induced ABR threshold shifts were obtained by subtraction of the pre-exposure from the post-exposure thresholds.
Now referring to FIG. 5C, DPOAE amplitudes were measured at f2 frequency ranging from 10 to 80 dB SPL in mice. […] A two-factor ANOVA (group x frequency) was used to compare pre-exposure amplitudes to Day 15 amplitudes.
Now referring to FIG. 5D, mean wave-I amplitudes at 10, 20, 28.3, and 40 kHz were measured at Day 15 post-noise exposure. Amplitudes from the 10-90 dB SPL stimulus intensity were compared between groups in the pre-noise test using a two-factor ANOVA (group x stimulus level), and no group differences were detected. At Day 15, only the 60-90 dB SPL stimulus levels were used because many of the subjects had no responses below 60 dB SPL.
Now referring to FIG. 5E to assess the protection of the ribbon synapses, the cochlear samples were immunostained with CtBP2, one of the most abundant proteins in synaptic ribbon bodies (Kujawa S G, et al. 2006). […] Now referring to FIG. 5F, […] hair cell count of ribbon synapses. […] In the same cochleae, OHCs were also counted. […] The frequency region of 16 kHz was used for CtbP2 ribbon count because this has been shown that ribbons are more abundant in this frequency region.

ggcsh = assay: Expression of nrf2 downstream gene ggcsh in zebrafish; type: in vivo; conditions: 0.002-1.48 μM, 6 hours
Procedure: Additionally to FIGS. 6A-6B, but not shown, 5 dpf zebrafish were incubated for 6 hours with vehicle, niclosamide (2 nM to 1.48 μM) and the nrf2 pathway activator […] (DEM) as a positive control, in order to evaluate the effect of niclosamide on ggcsh, a nrf2 downstream target. Ggcsh was previously validated as a Nrf2 downstream target in zebrafish. (Sheets, 2017). Following incubation, the total RNA was isolated from whole fish and processed to measure the induced expression of nrf2 downstream gene ggcsh. […] Additionally, Nrf2a morpholinos morphlinos were prepared, followed by incubation of the zebrafish morphants with cisplatin and/or niclosamide. Zebrafish eggs were injected with 4.5 ng of scrambled morpholino or nrf2a morpholino (5′-[…] SEQ NO: 1). At 3 dpf non-injected and morphant animals were exposed to vehicle, cisplatin (300 μM), cisplatin+niclosamide 18.3 nM or niclosamide alone for 6 hours. Following 1-hour recovery, animals were fixed and processed for immunohistochemistry. Nrf2a KD was confirmed by analyzing expression of Glutathione S-transferase P1 (gstp1), a downstream target, due to lack of proper antibody to detect Nrf2 protein in zebrafish.

[1] = HPLC analysis of interaction between Niclosamide and Cisplatin in vitro; type: physicochemical; conditions: ratios 1:1 and 1:10, 37° C.
Procedure: A simple explanation of Niclosamide's protection against CIHL is that it directly inactivates Cisplatin, similar to several otoprotectants in clinical trials (STS, ebselen, etc.). To investigate any possible interaction between Niclosamide and Cisplatin, we developed an HPLC method in vitro. The method may use the following: HPLC: Shimadzu Prominence-i LC-2030C, column: Agilent Eclipse Plus C18, PN-959961-902, 5% ACN, 95% water: 0-2 min; continuous increase of ACN to 95%: 2-12 min; hold at 95% ACN: 12-17 min; continuous decrease of ACN to 5%: 17-20 min, flow rate: 1 mL/min; Temperature 37° C., run time: 20 min. Additional parts of the method may use a stock solution of 1 mg/ml prepared in suitable solvent and mixed to create a ratio of cisplatin and niclosamide at 1:1 and 1:10 in the final injecting solution, along with the pure cisplatin and niclosamide. […] Our in vitro results are consistent with its synergistic interaction with Cisplatin in RCC xenograft models and its protection against noise injury.

O=C(Nc1ccc([N+](=O)[O-])cc1Cl)c1cc(Cl)ccc1O [Niclosamide, 5-chloro-N-(2-chloro-4-nitrophenyl)-2-hydroxy-benzamide]
noise-induced ABR threshold shifts versus noise exposed group (FVB/NJ mice; 8 kHz to 63 kHz, Day 14, 10 mg/kg IP): lower threshold shifts | synaptic ribbon (CtBP2) survival versus saline-noise group (FVB/NJ mice; 16 kHz): more synaptic ribbon survival | proportion of surviving OHCs versus saline-noise animals (FVB/NJ mice; 32 kHz): similar | wave-I amplitudes versus noise-exposed group (FVB/NJ mice; 80 and 90 dB SPL, Day 15): higher amplitudes | wave-I amplitude (cochlear nerve activity) versus age-matched controls (FVB/NJ mice; Day 15): comparable to aged matched controls | DPOAE amplitudes versus noise-saline group (FVB/NJ mice; day-15 post-noise exposure): significantly higher | expression of ggcsh (ggcsh): significantly lowered | chemical interaction with Cisplatin (third HPLC peak) [1]: no interaction between Niclosamide and Cisplatin
